Columns and labels:
PLK1 = target: T1, PLK1 (Homo sapiens, UniProt P53350); assay: PLK TR-FRET peptide assay (PLK1); type: biochemical
T1 construct: GST (N)
Protocol: (§1) Compounds as described herein (compounds of Formula I, e.g., compounds of the above Examples) are tested for their in vitro kinase activities using various PLK assays. An exemplary assay procedure is described below.
(§2) (1) Test compound solution preparation: prepare 4× compound solution in PLK assay buffer (50 mM HEPES, 10 mM MgCl2, 1 mM EGTA, 0.01% Tween-20, pH7.4). DTT is added to the buffer just before the experiment to a final concentration of 2 mM. Add 2.5 μl/well to a black 384-well low volume plate (4% DMSO at this step). (2) Kinase preparation: Prepare 2×GST-PLK 1, 2 or 3 (e.g., CarnaBio) solutions in assay buffer (6 nM for PLK1, 6 nM for PLK2 and 0.2 nM for PLK3). Add 5 μl/well, shake the plate, incubate the enzyme with compound at ret. Time for 15 min. (3) ATP/substrate mixture preparation: Prepare 4× (ATP/ULight-Topo Ha peptide substrate; e.g., Perkin Elmer) mixture in assay buffer (0.4 mM ATP/200 nM peptide). Add 2.5 μl/well, shake the plate and incubate at ret. Time. Reactions time: 60 min for PLK1, 60 min for PLK2 and 15 min for PLK3 (4) EDTA preparation: Dilute 0.5M EDTA to 24 mM with detection buffer. Add 5 μl/well to the plate, shake the plate well for 5 min. (5) Prepare 4× Eu-anti-P-Topo Ha (T1342) (e.g., Perkin Elmer) solution (8 nM) in detection buffer (50 Tris-HCl, 150 mM NaCl, 0.5% BSA, PH7.5). Add 5 μl/well to the plate, shake the plate and incubate at ret. Time for 1 h before reading on Envision at 665 nm/615 nm. The fluorescent signal as a function of compound concentration is used to determine the compound IC50.

PLK2 = target: T2, PLK2 (Homo sapiens, UniProt Q9NYY3); assay: PLK TR-FRET peptide assay (PLK2); type: biochemical; conditions: for selectivity relative to PLK1: compared to analogous compounds of WO 2011/079118; for activity with respect to PLK2: in vitro IC50 compared to analogous compounds of WO 2011/079118 (R1 methyl instead of fused ring)
T2 construct: GST (N)
Protocol: as §1, §2

[1] = test system: HEK-293 cells expressing α-synuclein and PLK2; assay: 293-Syn/PLK2 cell assay (ratio of p-Ser-129 α-synuclein to total synuclein, ELISA); type: cell-based; conditions: for IC50: Homo sapiens, HEK293, HEK-293 cells expressing α-synuclein and PLK2, ratio of phosphorylated synuclein to total synuclein; for cell activity: cellular IC50 compared to analogous compounds of WO 2011/079118
Protocol: Compounds as described herein (compounds of Formula I, e.g., compounds of the above Examples) are tested for their activity in HEK-293 cells expressing α-synuclein and PLK2. An exemplary assay procedure is described below.
(1) Plate HEK-293 cells stably transfected with α-synuclein in 10 cm dishes (Corning) at […] in 10% FCS/DMEM. (2) Transfect cells with PLK2 (PLK2-pCMV6 (Origene), at a concentration of 24 μg/dish and 72 μl Fugene6/dish (Roche)). (3) Trypsinize cells the following day and plate at 30,000 cells/well in PDL coated 96 well tissue culture plates (Becton Dickinson). (4) Starting with compounds at a concentration of 10 mM solutions, prepare five 1:3 serial dilutions in DMSO. (5) Dilute test and positive control compound DMSO stocks 1:100 into 10% FCS DMEM. (6) Change the cell media immediately prior to compound treatment, then add compound+DMEM to cells at 1:10 final dilution (final DMSO concentration is 0.1%). (7) After 2 hours, place the cells on ice, remove the media and the rinse cells once with cold phosphate buffered saline (PBS). Remove PBS and lyse the cells using a cell extraction buffer (CEB) (10 mM Tris, pH 7.4, 100 mM NaCl, 1 mM EDTA, 1 mM NaF, 1 mM EGTA, 20 mM Na4P2O7, 2 mM Na3VO4, 0.5% Deoxycholate, 1% TritonX-100, 10% Glycerol, 0.1% SDS) with added protease inhibitors (10 μg/ml leupeptin, 20 μg/ml aprotinin) (8) Freeze plates on dry ice and store at −80°.
Total and p-Ser-129 α-synuclein levels can be quantified with a sandwich ELISA (e.g., using 1H7 as the capture antibody and biotinylated 5C12 and 11A5 as the total and phospho synuclein reporter antibodies respectively; see e.g., J. Biol. Chem. 2006, 281:29739-29752, the disclosure of which is incorporated herein in its entirety). Alpha-synuclein phosphorylated at serine 129 (p-Ser-129 α-synuclein) levels are normalized to the total synuclein measured in each lysate and the ratio of phosphorylated synuclein to total synuclein as a function of compound concentration can be used to determine IC50 of the compounds.

PLK3 = target: T3, PLK3 (Homo sapiens, UniProt Q9H4B4); assay: PLK TR-FRET peptide assay (PLK3); type: biochemical; conditions: class symbols
T3 construct: GST (N)
Protocol: as §1, §2

[2] = comparison with analogous compounds of WO 2011/079118
[3] = PLK TR-FRET peptide assay, class symbols

T1 sequence (P53350 whole entry): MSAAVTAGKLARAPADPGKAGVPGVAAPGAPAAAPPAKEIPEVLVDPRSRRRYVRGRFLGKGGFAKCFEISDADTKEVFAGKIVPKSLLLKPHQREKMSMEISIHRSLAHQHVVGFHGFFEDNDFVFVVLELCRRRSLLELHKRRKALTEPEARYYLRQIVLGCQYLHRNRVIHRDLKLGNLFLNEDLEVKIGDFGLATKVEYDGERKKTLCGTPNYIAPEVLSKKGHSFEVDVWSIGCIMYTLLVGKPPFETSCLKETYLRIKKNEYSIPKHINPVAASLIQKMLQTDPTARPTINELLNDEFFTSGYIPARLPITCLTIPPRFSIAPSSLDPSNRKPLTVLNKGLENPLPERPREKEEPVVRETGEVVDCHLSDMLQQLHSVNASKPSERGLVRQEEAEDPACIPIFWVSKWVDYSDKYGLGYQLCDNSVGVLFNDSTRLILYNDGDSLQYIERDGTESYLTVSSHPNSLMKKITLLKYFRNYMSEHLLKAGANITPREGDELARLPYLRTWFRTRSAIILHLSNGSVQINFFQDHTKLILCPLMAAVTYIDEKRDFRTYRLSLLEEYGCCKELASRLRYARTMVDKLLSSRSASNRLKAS
T3 sequence (Q9H4B4 whole entry): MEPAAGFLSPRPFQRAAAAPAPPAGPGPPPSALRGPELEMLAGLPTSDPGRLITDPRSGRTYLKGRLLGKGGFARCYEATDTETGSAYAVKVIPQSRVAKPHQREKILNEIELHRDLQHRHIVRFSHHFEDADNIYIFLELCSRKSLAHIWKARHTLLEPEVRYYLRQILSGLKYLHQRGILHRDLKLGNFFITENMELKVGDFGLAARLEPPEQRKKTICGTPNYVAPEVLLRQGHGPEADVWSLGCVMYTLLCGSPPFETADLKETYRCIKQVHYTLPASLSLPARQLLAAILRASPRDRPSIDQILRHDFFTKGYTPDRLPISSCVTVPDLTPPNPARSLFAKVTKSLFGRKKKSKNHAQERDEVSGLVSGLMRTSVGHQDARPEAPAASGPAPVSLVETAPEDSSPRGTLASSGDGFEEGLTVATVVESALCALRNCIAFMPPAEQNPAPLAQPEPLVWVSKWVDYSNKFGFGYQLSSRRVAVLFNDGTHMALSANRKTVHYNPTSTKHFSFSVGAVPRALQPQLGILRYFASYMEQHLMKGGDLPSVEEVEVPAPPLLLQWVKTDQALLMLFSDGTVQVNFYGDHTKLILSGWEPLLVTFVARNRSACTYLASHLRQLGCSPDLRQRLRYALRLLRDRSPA
T2 sequence (Q9NYY3 whole entry, the tested form may be a part): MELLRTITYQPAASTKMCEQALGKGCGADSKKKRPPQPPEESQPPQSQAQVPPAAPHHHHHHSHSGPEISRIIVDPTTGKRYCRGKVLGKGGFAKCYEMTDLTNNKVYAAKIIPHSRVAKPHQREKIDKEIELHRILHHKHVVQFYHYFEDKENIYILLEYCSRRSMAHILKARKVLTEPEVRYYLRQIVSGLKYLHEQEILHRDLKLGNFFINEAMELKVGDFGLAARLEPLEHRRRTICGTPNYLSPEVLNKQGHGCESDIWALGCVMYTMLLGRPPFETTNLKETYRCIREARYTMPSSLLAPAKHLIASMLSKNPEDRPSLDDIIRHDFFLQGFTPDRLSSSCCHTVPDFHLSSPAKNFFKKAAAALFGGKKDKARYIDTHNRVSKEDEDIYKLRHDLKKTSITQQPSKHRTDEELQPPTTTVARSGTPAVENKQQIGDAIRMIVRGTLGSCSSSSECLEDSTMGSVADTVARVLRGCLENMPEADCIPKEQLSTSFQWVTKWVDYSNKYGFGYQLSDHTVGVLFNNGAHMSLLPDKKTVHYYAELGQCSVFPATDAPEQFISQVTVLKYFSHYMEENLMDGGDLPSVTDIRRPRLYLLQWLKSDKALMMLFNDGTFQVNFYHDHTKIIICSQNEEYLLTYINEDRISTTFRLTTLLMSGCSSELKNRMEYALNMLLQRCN

In the case of `CC[C@@H]1C(=O)N(C)c2cnc(-n3ccnc3-c3ccc(F)c(F)c3)nc2N1C1CCC1` [PCT Example 48, reference compound], the IC50 (PLK1; [2]) is reported as 3560 nM, the IC50 (PLK2; [2]) is reported as 39 nM and the “ratio Plk2 IC50 / Plk1 IC50 (selectivity relative to PLK1)” value (PLK2; [2]) is reported as 0.011. For the same molecule, the IC50 [1] was 4300 nM.

For `CC[C@@H]1c2nncn2-c2cnc(-n3ccnc3-c3ccc(F)cc3F)nc2N1C1CCC1` [Example 11, (R)-5-Cyclobutyl-7-(2-(2,4-difluorophenyl)-1H-imidazol-1-yl)-4-ethyl-4,5-dihydro-[1,2,4]triazolo[4,3-f]pteridine], the IC50 (PLK1; [3]) was 1000 to 10000 nM, the IC50 (PLK2; [3]) was under 1000 nM and the IC50 (PLK3) was 10000 to 50000 nM.

In the case of `CC[C@@H]1c2nncn2-c2cnc(-n3ccnc3-c3ccccc3F)nc2N1C1CCC1` [Example 5, (R)-5-cyclobutyl-4-ethyl-7-(2-(2-fluorophenyl)-1H-imidazol-1-yl)-4,5-dihydro-[1,2,4]triazolo[4,3-f]pteridine], the IC50 (PLK1; [3]) is reported as under 1000 nM, the IC50 (PLK1; [2]) is reported as 317 nM and the IC50 (PLK2; [3]) is reported as under 1000 nM. The “selectivity relative to PLK1” value (PLK2) was “comparable selectivity”, the IC50 (PLK2; [2]) was 6 nM and the “ratio Plk2 IC50 / Plk1 IC50 (selectivity relative to PLK1)” value (PLK2; [2]) was 0.019. For the same molecule, the “activity with respect to PLK2” value (PLK2) was “comparable activity”, the IC50 (PLK3) was 1000 to 10000 nM and the IC50 [1] was 440 nM. The cell activity [1] was “comparable cell activity”.

`CC[C@@H]1c2nncn2-c2cnc(-n3ccnc3-c3cccc(F)c3F)nc2N1C1CCC1` [Example 9, (R)-5-cyclobutyl-7-(2-(2,3-difluorophenyl)-1H-imidazol-1-yl)-4-ethyl-4,5-dihydro-[1,2,4]triazolo[4,3-f]pteridine] gave an IC50 (PLK1; [3]) of under 1000 nM, an IC50 (PLK2; [3]) of under 1000 nM and an IC50 (PLK3) of 1000 to 10000 nM.

In the case of `CC[C@@H]1c2nncn2-c2cnc(-c3c[nH]nc3-c3nccs3)nc2N1C1CCC1` [Example 695, (R)-2-(4-(5-cyclobutyl-4-ethyl-4,5-dihydro-[1,2,4]triazolo[4,3-f]pteridin-7-yl)-1H-pyrazol-3-yl)thiazole], the IC50 (PLK1; [3]) is reported as 1000 to 10000 nM, the IC50 (PLK2; [3]) is reported as under 1000 nM and the IC50 (PLK3) is reported as 1000 to 10000 nM.

With `CC[C@@H]1C(=O)N(C)c2cnc(-n3ccnc3-c3ccccc3)nc2N1C1CCC1` [PCT Example 47, reference compound] the IC50 (PLK1; [2]) was 194 nM, the IC50 (PLK2; [2]) was 7 nM and the “ratio Plk2 IC50 / Plk1 IC50 (selectivity relative to PLK1)” value (PLK2; [2]) was 0.036. The IC50 [1] was 670 nM.

Work on `CC[C@@H]1c2nncn2-c2cnc(-n3ccnc3-c3ccc(F)cc3)nc2N1C1CCC1` [Example 7, (R)-5-Cyclobutyl-4-ethyl-7-(2-(4-fluorophenyl)-1H-imidazol-1-yl)-4,5-dihydro-[1,2,4]triazolo[4,3-f]pteridine] yielded an IC50 (PLK1; [3]) of 1000 to 10000 nM, an IC50 (PLK1; [2]) of 6260 nM and an IC50 (PLK2; [3]) of under 1000 nM. The “selectivity relative to PLK1” value (PLK2) was “comparable selectivity”, the IC50 (PLK2; [2]) was 40 nM and the “ratio Plk2 IC50 / Plk1 IC50 (selectivity relative to PLK1)” value (PLK2; [2]) was 0.0064. For the same molecule, the “activity with respect to PLK2” value (PLK2) was “comparable activity”, the IC50 (PLK3) was 10000 to 50000 nM and the IC50 [1] was 2900 nM. The cell activity [1] was “comparable cell activity”.

`CC[C@@H]1c2nncn2-c2cnc(-n3ccnc3-c3ccc(F)c(F)c3)nc2N1C1CCC1` [Example 1, (R)-5-Cyclobutyl-7-(2-(3,4-difluorophenyl)-1H-imidazol-1-yl)-4-ethyl-4,5-dihydro-[1,2,4]triazolo[4,3-f]pteridine] was tested, and the IC50 (PLK1; [3]) was 10000 to 50000 nM, the IC50 (PLK1; [2]) was 14600 nM and the IC50 (PLK2; [3]) was under 1000 nM. For the same molecule, the “selectivity relative to PLK1” value (PLK2) was “comparable selectivity”, the IC50 (PLK2; [2]) was 92 nM and the “ratio Plk2 IC50 / Plk1 IC50 (selectivity relative to PLK1)” value (PLK2; [2]) was 0.0063. For the same molecule, the “activity with respect to PLK2” value (PLK2) was “comparable activity”, the IC50 (PLK3) was 10000 to 50000 nM and the IC50 [1] was 4400 nM. For the same molecule, the cell activity [1] was “comparable cell activity”.

`CC[C@@H]1c2nncn2-c2cnc(-n3ccnc3-c3ccc(F)cc3)nc2N1C1CCC1` [PCT Example 50, reference compound] showed an IC50 (PLK1; [2]) of 2060 nM and an IC50 (PLK2; [2]) of 20 nM.

In the case of `CC[C@@H]1C(=O)N(C)c2cnc(-n3ccnc3-c3ccccc3F)nc2N1C1CCC1` [PCT Example 49, reference compound], the IC50 (PLK1; [2]) is reported as 77 nM, the IC50 (PLK2; [2]) is reported as 4.5 nM and the “ratio Plk2 IC50 / Plk1 IC50 (selectivity relative to PLK1)” value (PLK2; [2]) is reported as 0.058. The IC50 [1] was 420 nM.

Molecule `CC[C@@H]1c2nncn2-c2cnc(-n3ccnc3-c3ccccc3)nc2N1C1CCC1` [Example 3, (R)-5-Cyclobutyl-4-ethyl-7-(2-phenyl-1H-imidazol-1-yl)-4,5-dihydro-[1,2,4]triazolo[4,3-f]pteridine] has an IC50 (PLK1; [3]) of under 1000 nM, an IC50 (PLK1; [2]) of 441 nM and an IC50 (PLK2; [3]) of under 1000 nM. The “selectivity relative to PLK1” value (PLK2) was “comparable selectivity”, the IC50 (PLK2; [2]) was 8.5 nM and the “ratio Plk2 IC50 / Plk1 IC50 (selectivity relative to PLK1)” value (PLK2; [2]) was 0.019. The “activity with respect to PLK2” value (PLK2) was “comparable activity”, the IC50 (PLK3) was 1000 to 10000 nM and the IC50 [1] was 420 nM. The cell activity [1] was “comparable cell activity”.

From patent publication US20120115848A1, “Inhibitors of Polo-Like Kinase” (ELAN PHARMACEUTICALS, INC., priority 2010, published 2012)
